# Test system: FXa
# Settings: in vivo
# Method: New Zealand white rabbits of both sexes, weighing 2.5-3.5 kg were used in all experiments. […] The rabbits were anaesthetized with Mebumal, 20 mg/kg. The anaesthesia was subsequently maintained as required. The animals were shaved and a medial laparotomy performed. The test compounds were then injected directly into the duodenum, after which the peritoneal cavity was closed. Rectal administration was performed by means of a syringe coupled to a plastic tube designed for use in the rectum of rabbits. The dosage was checked by weighing of the syringe and connecting tubings before and after administering the test compounds.
# Blood samples (1 ml) were collected at 0.25, 0.5, 0.75, 1, 1.5, 2, 2.5, 3, 4, 5, 6, 7, 8, 9, and 10 hours with the aid of catheter inserted in the ear artery and mixed with sodium […] to a final concentration of 0.04M. The tubes were kept on ice until centrifuged at 800 g for 10 minutes. The anti-FXa activity in plasma was determined with an initial rate assay using bovine FXa (Kabi Pharmacia) and the chromogenic substrate S-2222.
substance,measurement,setting,value
heparin,degree of absorption compared with Fragmin,,significantly lower than that of Fragmin®
same,rectal absorption when admixed with the lipid system,,significantly increased
same,anti-FXa activity detected in plasma,2 mg/kg,detectable levels of anti-FXa activity
same,average absorption,"rabbit, 2 mg/kg",15.7%±8
